Results taken from patent US11766470B2, “Manufacture, formulation and dosing of apraglutide” (VectivBio AG, priority 2020, dated 2023).
Square brackets hold non-standard residues; d marks the D form. Peptide text beside a SMILES is read from it. ξ: configuration not given here. Ile(3ξ) = CCC(C)[C@H](N)C(=O)O; Thr(3ξ) = CC(O)[C@H](N)C(=O)O; Nle = CCCC[C@H](N)C(=O)O

System: healthy adult volunteers
Experiment: Multiple dose study in healthy volunteers (Examples 4 and 7), pharmacodynamics: plasma citrulline, Bristol stool scale, body weight
Assay type: in vivo, human
Conditions: for Highest mean citrulline value following the first weekly SC dose: after four days
Method: The endogenous marker citrulline was selected to assess the pharmacodynamic effect of apraglutide. Citrulline was detected in all baseline and post-dose samples. Three baseline citrulline samples were obtained during two baseline visits between screening and the first dosing day and before dosing on the first dosing day. […] At baseline, the mean citrulline range was 5.3825-5.6207 μg/mL for placebo, 5.3900-6.2028 μg/mL for 1 mg apraglutide, 4.8983-5.3023 μg/mL for 5 mg apraglutide and 5.0730-5.4690 μg/mL for 10 mg apraglutide. In the placebo group, the mean citrulline concentration remained relatively stable over the trial, ranging from 4.9735 to 5.8253 μg/mL.
In short, the first contrast tested compared the mean Rpre-dose at the first time point (week 1) to the pooled mean Rpre-dose over all remaining time points (week 2 to 6). The second contrast compared the mean at week 2 to the pooled mean over week 3 to 6, etc. Testing continued until the contrast was not statistically significant. The mean Rpre-dose at week 6 for 10 mg against mean Rpre-dose over week 5 (0.8720, 95% CI: 0.1590; 1.5850 and p=0.0172) was statistically significant.
Besides citrulline, the Bristol stool scale and body weight were assessed as pharmacodynamic endpoints. In contrast to citrulline and weight, the Bristol stool scale is a discrete variable. Subjects assessed their stool in the past 24 hours using the Bristol stool scale ranging from constipation (type 1) to diarrhea (type 7). No stool in the past 24 hours was recorded as zero. As two subjects (assigned to either 1 or 5 mg) reported no stool preceding the first dose, the screening Bristol stool scale score was also taken into account when determining the baseline Bristol stool scale score.
Citrulline, BSS and weight data are analyzed with a mixed model analysis of variance with fixed factors treatment, time and treatment by time, random factor subject, and the average prevalue as covariate. The average pre-value was calculated from all pre-values after screening and before dosing, except for BSS, where the screening value was also used to calculate the average baseline.
For all pharmacodynamic endpoints (citrulline, Bristol stool scale and weight), the pre-value has been used as covariate. The average pre-value was calculated from all pre-values after screening and before dosing, except for the Bristol stool scale, where the screening value was also used to calculate the average baseline. The average pre-value of citrulline was also used as covariate in the MCP-MOD, except in the Sigmoid Emax model. This was addressed by subtracting the pre-value times the slope of the linear model of the MCP part from the values of week 6.

[1] = 1 mg, over the whole trial period

With `CCCC[C@H](NC(=O)[C@H](CCC(=O)O)NC(=O)[C@H](CC(=O)O)NC(=O)[C@H](CO)NC(=O)[C@H](Cc1ccccc1)NC(=O)[C@H](CO)NC(=O)CNC(=O)[C@H](CC(=O)O)NC(=O)CNC(=O)[C@@H](N)Cc1c[nH]cn1)C(=O)N[C@H](Cc1ccccc1)C(=O)N[C@H](C(=O)N[C@H](C(=O)N[C@@H](CC(C)C)C(=O)N[C@@H](CC(=O)O)C(=O)N[C@@H](CC(C)C)C(=O)N[C@@H](CC(C)C)C(=O)N[C@@H](C)C(=O)N[C@@H](C)C(=O)N[C@@H](CCCNC(=N)N)C(=O)N[C@@H](CC(=O)O)C(=O)N[C@@H](Cc1ccccc1)C(=O)N[C@H](C(=O)N[C@@H](CC(N)=O)C(=O)N[C@@H](Cc1c[nH]c2ccccc12)C(=O)N[C@@H](CC(C)C)C(=O)N[C@H](C(=O)N[C@@H](CCC(N)=O)C(=O)N[C@H](C(=O)N[C@@H](CCCCN)C(=O)N[C@H](C(=O)N[C@H](C(=O)N[C@@H](CC(=O)O)C(N)=O)C(C)O)C(C)CC)C(C)O)C(C)CC)C(C)CC)C(C)CC)C(C)O` (stereo partly drawn) [apraglutide, L-histidyl-glycyl-L-aspartyl-glycyl-L-seryl-L-phenylalanyl-L-seryl-L-aspartyl-L-glutamyl-L-norleucyl-D-phenylalanyl-L-threonyl-Lisoleucyl-L-leucyl-L-aspartyl-L-leucyl-L-leucyl-L-alanyl-L-alanyl-L-arginyl-L-aspartyl-L-phenylalanyl-L-isoleucyl-L-asparaginyl-Ltryptophanyl-L-leucyl-L-isoleucyl-L-glutaminyl-L-threonyl-L-lysyl-L-isoleucyl-L-threonyl-Laspartic acid amide] (H-HGDGSFSDE[Nle][dF][Thr(3ξ)][Ile(3ξ)]LDLLAARDF[Ile(3ξ)]NWL[Ile(3ξ)]Q[Thr(3ξ)]K[Ile(3ξ)][Thr(3ξ)]D-NH2) the “Difference between mean Rmax over the whole trial and Rmax after last dose” value (1 mg) was 0.1016 µg/mL, the “Bristol stool scale with zeroes set to missing, estimate of the difference” value (1 mg - 5 mg) was 0.2 and the “Bristol stool scale, estimate of the difference” value (1 mg - 5 mg) was −0.1. For the same compound, the “Citrulline, estimate of the difference” value (1 mg - 5 mg) was 0.9429 µg/mL, the “Weight, estimate of the difference” value (1 mg - 5 mg) was -0.115 kg and the “Bristol stool scale with zeroes set to missing, estimate of the difference” value (1 mg - 10 mg) was 0.1. The “Bristol stool scale, estimate of the difference” value (1 mg - 10 mg) was 0.3, the “Citrulline, estimate of the difference” value (1 mg - 10 mg) was 1.3198 µg/mL and the “Weight, estimate of the difference” value (1 mg - 10 mg) was 0.419 kg. For the same compound, the “No stool in the past 24 hours, number of reports” value (1 mg group (2 subjects)) was 6 times, the “Highest mean citrulline value following the first weekly SC dose” value (1 mg) was 6.3920 µg/mL and the “Citrulline Rtmax, median” value (1 mg, after last dose 6) was 2.0 days. The “Citrulline Rpre-dose, arithmetic mean ± SD” value (1 mg, last dose 1) was 5.8075 ± 1.3328 µg/mL, the “Citrulline Rpre-dose, geometric mean” value (1 mg, last dose 1) was 5.6723 µg/mL and the “Citrulline Rpre-dose, arithmetic mean ± SD” value (1 mg, last dose 2) was 6.2605 ± 1.2331 µg/mL. For the same compound, the “Citrulline Rpre-dose, geometric mean” value (1 mg, last dose 2) was 6.1526 µg/mL, the “Citrulline Rpre-dose, arithmetic mean ± SD” value (1 mg, last dose 3) was 6.4913 ± 1.8297 µg/mL and the “Citrulline Rpre-dose, geometric mean” value (1 mg, last dose 3) was 6.2752 µg/mL. For the same compound, the “Citrulline Rpre-dose, arithmetic mean ± SD” value (1 mg, last dose 4) was 6.0050 ± 1.5790 µg/mL, the “Citrulline Rpre-dose, geometric mean” value (1 mg, last dose 4) was 5.8213 µg/mL and the “Citrulline Rpre-dose, arithmetic mean ± SD” value (1 mg, last dose 5) was 6.4128 ± 1.8032 µg/mL. The “Citrulline Rpre-dose, geometric mean” value (1 mg, last dose 5) was 6.2097 µg/mL, the “Citrulline Rmax, arithmetic mean ± SD” value (1 mg, last dose 6) was 7.1702 µg/mL and the “Citrulline Rmax, geometric mean” value (1 mg, last dose 6) was 7.0069 µg/mL. The “Citrulline Rpre-dose, arithmetic mean ± SD” value (1 mg, last dose 6) was 6.3120 ± 1.6694 µg/mL, the “Citrulline Rpre-dose, geometric mean” value (1 mg, last dose 6) was 6.1166 µg/mL and the “Citrulline Rmax, arithmetic mean ± SD” value (1 mg, last dose 6, listed as Apraglutide) was 7.1702 ± 1.6611 µg/mL. The “Citrulline Rmax, arithmetic mean ± SD” value [1] was 7.2718 ± 1.6959 µg/mL, the “Citrulline Rmax, geometric mean” value [1] was 7.1036 µg/mL and the “Citrulline Rtmax, median” value (1 mg, whole trial period, from first dose) was 35.9 days. The “Difference between mean Rmax over the whole trial and Rmax after last dose” value (5 mg) was 0.0973 µg/mL, the “Bristol stool scale with zeroes set to missing, estimate of the difference” value (5 mg - 10 mg) was −0.0 and the “Bristol stool scale, estimate of the difference” value (5 mg - 10 mg) was 0.5. The “Citrulline, estimate of the difference” value (5 mg - 10 mg) was 0.3769 µg/mL, the “Weight, estimate of the difference” value (5 mg - 10 mg) was 0.534 kg and the “No stool in the past 24 hours, number of reports” value (5 mg group (4 subjects)) was 13 times. For the same compound, the “Highest mean citrulline value following the first weekly SC dose” value (5 mg) was 7.1933 µg/mL, the “Citrulline Rtmax, median” value (5 mg, after last dose 6) was 3.9 days and the “Citrulline Rpre-dose, arithmetic mean ± SD” value (5 mg, last dose 1) was 6.7695 ± 1.5288 µg/mL. For the same compound, the “Citrulline Rpre-dose, geometric mean” value (5 mg, last dose 1) was 6.5967 µg/mL, the “Citrulline Rpre-dose, arithmetic mean ± SD” value (5 mg, last dose 2) was 7.0082 ± 1.1330 µg/mL and the “Citrulline Rpre-dose, geometric mean” value (5 mg, last dose 2) was 6.9208 µg/mL. For the same compound, the “Citrulline Rpre-dose, arithmetic mean ± SD” value (5 mg, last dose 3) was 6.6155 ± 1.2790 µg/mL, the “Citrulline Rpre-dose, geometric mean” value (5 mg, last dose 3) was 6.5109 µg/mL and the “Citrulline Rpre-dose, arithmetic mean ± SD” value (5 mg, last dose 4) was 6.6227 ± 1.2247 µg/mL. The “Citrulline Rpre-dose, geometric mean” value (5 mg, last dose 4) was 6.5313 µg/mL, the “Citrulline Rpre-dose, arithmetic mean ± SD” value (5 mg, last dose 5) was 6.8307 ± 1.2369 µg/mL and the “Citrulline Rpre-dose, geometric mean” value (5 mg, last dose 5) was 6.7248 µg/mL. For the same compound, the “Citrulline Rmax, arithmetic mean ± SD” value (5 mg, last dose 6) was 8.1577 µg/mL.
